Data published in publication PMC3604699 (Biochemistry, 2011).

Molecular target: sortase A (SrtA) (Staphylococcus aureus, UniProt Q2FV99)
Test: HPLC transpeptidation assay, time-dependent inactivation kinetics
Assay type: biochemical
Conditions: read-out: KI

sortase A (SrtA), sequence (Q2FV99 25-206): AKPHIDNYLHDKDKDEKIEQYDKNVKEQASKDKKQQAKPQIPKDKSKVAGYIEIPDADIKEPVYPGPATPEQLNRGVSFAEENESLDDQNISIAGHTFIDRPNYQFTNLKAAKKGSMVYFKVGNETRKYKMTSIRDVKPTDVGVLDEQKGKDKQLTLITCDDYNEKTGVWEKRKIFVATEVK

OCl [NaOCl] was tested, and the KI (inactivation) was 11.8 ± 3.1 mM.
